Assays:
[1] = tested on: mice and rats affected by thermal hyperalgesia; test: Thermal hyperalgesia assay; type: in vivo; conditions: oral administration, constant dose, against the vehicle treatment group; latency to escape behaviors after thermal stimulation of hind paw;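 further: measurement times set by the study director and not disclosed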
hNav 1.7 = hNav 1.7 (Homo sapiens (Human), UniProt Q15858); test: Electrophysiological evaluation, automated patch clamp IonWorks Quattro (Population Patch Clamp mode); type: cell-based; conditions: HEK293A cells stably expressing hNav 1.7/β1/β2; response to second depolarization pulse, pre-pulse potential set to V1/2; read-out: hNav1.7 IC50
Sequence of hNav 1.7 (Q15858 whole entry): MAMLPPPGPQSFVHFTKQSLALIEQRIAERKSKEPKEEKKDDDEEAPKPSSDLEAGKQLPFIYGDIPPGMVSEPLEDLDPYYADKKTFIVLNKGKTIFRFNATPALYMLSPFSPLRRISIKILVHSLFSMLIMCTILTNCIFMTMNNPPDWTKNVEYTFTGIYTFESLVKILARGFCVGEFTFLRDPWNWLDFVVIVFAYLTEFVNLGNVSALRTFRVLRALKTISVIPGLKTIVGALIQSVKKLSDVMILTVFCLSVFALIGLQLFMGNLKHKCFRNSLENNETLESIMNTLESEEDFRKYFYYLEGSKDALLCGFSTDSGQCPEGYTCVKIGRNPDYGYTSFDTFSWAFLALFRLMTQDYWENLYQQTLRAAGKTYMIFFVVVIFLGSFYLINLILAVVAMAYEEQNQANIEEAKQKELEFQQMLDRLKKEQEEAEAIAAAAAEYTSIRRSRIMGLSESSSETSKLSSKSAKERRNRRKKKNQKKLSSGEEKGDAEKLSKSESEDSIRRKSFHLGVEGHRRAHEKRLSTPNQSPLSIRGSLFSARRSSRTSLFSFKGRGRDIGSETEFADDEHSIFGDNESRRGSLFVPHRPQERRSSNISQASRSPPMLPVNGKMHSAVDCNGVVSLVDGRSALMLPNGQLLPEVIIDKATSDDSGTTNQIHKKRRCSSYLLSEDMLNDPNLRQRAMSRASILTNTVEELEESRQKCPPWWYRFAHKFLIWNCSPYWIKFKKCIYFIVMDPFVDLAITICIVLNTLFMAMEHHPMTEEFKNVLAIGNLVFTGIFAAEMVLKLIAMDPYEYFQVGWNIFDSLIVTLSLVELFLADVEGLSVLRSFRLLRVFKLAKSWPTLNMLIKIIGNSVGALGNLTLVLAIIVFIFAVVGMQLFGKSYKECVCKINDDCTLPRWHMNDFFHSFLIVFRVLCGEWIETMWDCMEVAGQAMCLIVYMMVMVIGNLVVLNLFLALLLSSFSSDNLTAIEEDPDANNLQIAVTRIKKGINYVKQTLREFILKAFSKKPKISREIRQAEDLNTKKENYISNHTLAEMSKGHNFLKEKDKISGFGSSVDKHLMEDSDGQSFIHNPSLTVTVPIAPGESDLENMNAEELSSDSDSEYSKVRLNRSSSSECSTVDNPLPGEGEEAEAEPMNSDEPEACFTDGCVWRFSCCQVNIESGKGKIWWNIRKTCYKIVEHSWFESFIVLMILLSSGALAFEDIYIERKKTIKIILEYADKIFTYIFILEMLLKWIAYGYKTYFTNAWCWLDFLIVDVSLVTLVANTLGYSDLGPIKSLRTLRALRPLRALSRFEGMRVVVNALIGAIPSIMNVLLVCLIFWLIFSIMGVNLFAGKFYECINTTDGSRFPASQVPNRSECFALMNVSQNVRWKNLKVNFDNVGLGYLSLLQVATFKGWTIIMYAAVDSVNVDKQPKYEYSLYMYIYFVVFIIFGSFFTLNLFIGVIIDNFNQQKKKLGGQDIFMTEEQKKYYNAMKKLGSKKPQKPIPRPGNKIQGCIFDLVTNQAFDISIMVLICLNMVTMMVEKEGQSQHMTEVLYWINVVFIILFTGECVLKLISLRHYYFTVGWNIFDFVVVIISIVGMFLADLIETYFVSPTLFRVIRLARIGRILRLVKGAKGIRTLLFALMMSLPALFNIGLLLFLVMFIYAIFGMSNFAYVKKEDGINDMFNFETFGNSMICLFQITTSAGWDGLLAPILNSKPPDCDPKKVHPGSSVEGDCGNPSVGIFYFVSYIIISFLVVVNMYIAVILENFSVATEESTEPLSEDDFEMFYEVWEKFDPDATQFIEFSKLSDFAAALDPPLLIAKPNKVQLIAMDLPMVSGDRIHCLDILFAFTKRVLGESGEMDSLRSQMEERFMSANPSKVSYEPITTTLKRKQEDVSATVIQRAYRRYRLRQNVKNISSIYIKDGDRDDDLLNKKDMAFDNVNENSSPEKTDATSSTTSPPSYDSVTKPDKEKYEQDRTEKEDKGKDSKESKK
Sequence of hNav 1.7 (Q07699 19-218 partner): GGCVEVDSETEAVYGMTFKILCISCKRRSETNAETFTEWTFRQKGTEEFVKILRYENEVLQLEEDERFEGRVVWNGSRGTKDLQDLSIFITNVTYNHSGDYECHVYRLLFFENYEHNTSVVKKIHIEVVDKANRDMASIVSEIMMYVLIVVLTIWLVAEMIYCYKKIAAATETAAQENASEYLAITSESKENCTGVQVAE
Sequence of hNav 1.7 (O60939 30-215 partner): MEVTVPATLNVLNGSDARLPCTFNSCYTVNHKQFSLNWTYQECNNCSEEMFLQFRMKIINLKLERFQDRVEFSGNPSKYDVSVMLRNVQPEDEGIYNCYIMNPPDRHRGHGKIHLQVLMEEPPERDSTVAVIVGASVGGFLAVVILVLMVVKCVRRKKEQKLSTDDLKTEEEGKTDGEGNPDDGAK

Row | Compound | IC50 (hNav 1.7) [nM] | Ratio of improving pain score (%) [1]
1 | CCn1nccc1[C@H]1CCC[C@@H]1Oc1ccc(S(=O)(=O)Nc2ccncn2)c(F)c1F (relative stereo) [Example 38, 4-{[(1S*,2R*)-2-(1-Ethyl-1H-pyrazol-5-yl)cyclopentyl]oxy}-2,3-difluoro-N-(pyrimidin-4-yl)benzenesulfonamide] | 240 | A (“A” when the rate was 61 to 100%)
2 | CCn1nccc1[C@H]1CCC[C@@H]1Oc1cc(F)c(S(=O)(=O)Nc2ccncn2)c(F)c1 (relative stereo) [Example 50, 4-{[(1S*,2R*)-2-(1-Ethyl-1H-pyrazol-5-yl)cyclopentyl]oxy}-2,6-difluoro-N-(pyrimidin-4-yl)benzenesulfonamide] | 47 | B (“B” when the rate was 31 to 60%)
3 | Cc1cc(S(=O)(=O)Nc2ccncn2)ccc1O[C@H]1CCC[C@@H]1c1ccnn1C (relative stereo) [Example 52, 3-Methyl-4-{[(1S*,2R*)-2-(1-methyl-1H-pyrazol-5-yl)cyclopentyl]oxy}-N-(pyrimidin-4-yl)benzenesulfonamide] | 83 | B (“B” when the rate was 31 to 60%)
4 | Cc1cc(S(=O)(=O)Nc2ccncn2)ccc1O[C@H]1CCCC[C@@H]1c1ccnn1C (relative stereo) [Example 54, 3-Methyl-4-{[(1S*,2R*)-2-(1-methyl-1H-pyrazol-5-yl)cyclohexyl]oxy}-N-(pyrimidin-4-yl)benzenesulfonamide] | 39 | C (“C” when the rate was 0 to 30%)
5 | Cn1nccc1[C@H]1CCCCC[C@@H]1Oc1ccc(S(=O)(=O)Nc2ccncn2)cc1C#N (relative stereo) [Example 55, 3-Cyano-4-{[(1S*,2R*)-2-(1-methyl-1H-pyrazol-5-yl)cycloheptyl]oxy}-N-(pyrimidin-4-yl)benzenesulfonamide] | 39 | C (“C” when the rate was 0 to 30%)
6 | CCn1nccc1[C@H]1CCCC[C@@H]1Oc1cc(F)c(S(=O)(=O)Nc2ccncn2)c(F)c1 (relative stereo) [Example 59, 4-{[(1S*,2R*)-2-(1-Ethyl-1H-pyrazol-5-yl)cyclohexyl]oxy}-2,6-difluoro-N-(pyrimidin-4-yl)benzenesulfonamide] | 31 | C (“C” when the rate was 0 to 30%)
7 | Cn1nccc1[C@H]1CCC[C@@H]1Oc1cc(F)c(S(=O)(=O)Nc2ccncn2)cc1C#N (relative stereo) [Example 62, 5-Cyano-2-fluoro-4-{[(1S*,2R*)-2-(1-methyl-1H-pyrazol-5-yl)cyclopentyl]oxy}-N-(pyrimidin-4-yl)benzenesulfonamide] | 120 | B (“B” when the rate was 31 to 60%)
8 | Cc1c(O[C@H]2CCC[C@@H]2c2ccnn2C)ccc(S(=O)(=O)Nc2ccncn2)c1F (relative stereo) [Example 65, 2-Fluoro-3-methyl-4-{[(1S*,2R*)-2-(1-methyl-1H-pyrazol-5-yl)cyclopentyl]oxy}-N-(pyrimidin-4-yl)benzenesulfonamide] | 130 | B (“B” when the rate was 31 to 60%)

More lines, main results first:

Row | IC50 (hNav 1.7) [nM] | Compound | Ratio of improving pain score (%) [1]
9 | 330 | Cn1nccc1[C@H]1CCCC[C@@H]1Oc1ccc(S(=O)(=O)Nc2ccncn2)c(F)c1F (relative stereo) [Example 40, 2,3-Difluoro-4-{[(1S*,2R*)-2-(1-methyl-1H-pyrazol-5-yl)cyclohexyl]oxy}-N-(pyrimidin-4-yl)benzenesulfonamide] | A (“A” when the rate was 61 to 100%)
10 | 160 | CCn1nccc1[C@H]1CCCC[C@@H]1Oc1ccc(S(=O)(=O)Nc2ccncn2)c(F)c1F (relative stereo) [Example 41, 4-{[(1S*,2R*)-2-(1-Ethyl-1H-pyrazol-5-yl)cyclohexyl]oxy}-2,3-difluoro-N-(pyrimidin-4-yl)benzenesulfonamide] | B (“B” when the rate was 31 to 60%)
11 | 91 | Cn1nccc1[C@H]1CCCCC[C@@H]1Oc1cc(F)c(S(=O)(=O)Nc2ccncn2)cc1F (relative stereo) [Example 42, 2,5-Difluoro-4-{[(1S*,2R*)-2-(1-methyl-1H-pyrazol-5-yl)cycloheptyl]oxy}-N-(pyrimidin-4-yl)benzenesulfonamide] | C (“C” when the rate was 0 to 30%)
12 | 330 | Cn1nccc1[C@H]1CCCC[C@@H]1Oc1ccc(S(=O)(=O)Nc2ccncn2)c(F)c1 (relative stereo) [Example 44, 2-Fluoro-4-{[(1S*,2R*)-2-(1-methyl-1H-pyrazol-5-yl)cyclohexyl]oxy}-N-(pyrimidin-4-yl)benzenesulfonamide] | C (“C” when the rate was 0 to 30%)
13 | 190 | CCn1nccc1[C@H]1CCCC[C@@H]1Oc1ccc(S(=O)(=O)Nc2ccncn2)c(F)c1 (relative stereo) [Example 45, 4-{[(1S*,2R*)-2-(1-Ethyl-1H-pyrazol-5-yl)cyclohexyl]oxy}-2-fluoro-N-(pyrimidin-4-yl)benzenesulfonamide] | C (“C” when the rate was 0 to 30%)
14 | 120 | Cn1nccc1[C@H]1CCC(F)(F)C[C@@H]1Oc1cc(F)c(S(=O)(=O)Nc2ccncn2)cc1F (relative stereo) [Example 47, 4-{[(1S*,2R*)-5,5-Difluoro-2-(1-methyl-1H-pyrazol-5-yl)cyclohexyl]oxy}-2,5-difluoro-N-(pyrimidin-4-yl)benzenesulfonamide] | A (“A” when the rate was 61 to 100%)
15 | 750 | Cn1nccc1[C@H]1CCCCC[C@@H]1Oc1ccc(S(=O)(=O)Nc2ccncn2)c(F)c1F (relative stereo) [Example 51, 2,3-Difluoro-4-{[(1S*,2R*)-2-(1-methyl-1H-pyrazol-5-yl)cycloheptyl]oxy}-N-(pyrimidin-4-yl)benzenesulfonamide] | B (“B” when the rate was 31 to 60%)
16 | 250 | Cn1nccc1[C@H]1CCCC[C@@H]1Oc1ccc(S(=O)(=O)Nc2ccncn2)cc1C#N (relative stereo) [Example 56, 3-Cyano-4-{[(1S*,2R*)-2-(1-methyl-1H-pyrazol-5-yl)cyclohexyl]oxy}-N-(pyrimidin-4-yl)benzenesulfonamide] | B (“B” when the rate was 31 to 60%)
17 | 75 | Cc1cc(S(=O)(=O)Nc2ccncn2)ccc1O[C@H]1CCCCC[C@@H]1c1ccnn1C (relative stereo) [Example 57, 3-Methyl-4-{[(1S*,2R*)-2-(1-methyl-1H-pyrazol-5-yl)cycloheptyl]oxy}-N-(pyrimidin-4-yl)benzenesulfonamide] | B (“B” when the rate was 31 to 60%)
18 | 660 | Cn1nccc1[C@H]1CCCCC[C@@H]1Oc1ccc(S(=O)(=O)Nc2ccncn2)c(F)c1 (relative stereo) [Example 58, 2-Fluoro-4-{[(1S*,2R*)-2-(1-methyl-1H-pyrazol-5-yl)cycloheptyl]oxy}-N-(pyrimidin-4-yl)benzenesulfonamide] | B (“B” when the rate was 31 to 60%)
19 | 37 | Cn1nccc1[C@H]1CCCCC[C@@H]1Oc1cc(F)c(S(=O)(=O)Nc2ccncn2)cc1Cl (relative stereo) [Example 60, 5-Chloro-2-fluoro-4-{[(1S*,2R*)-2-(1-methyl-1H-pyrazol-5-yl)cycloheptyl]oxy}-N-(pyrimidin-4-yl)benzenesulfonamide] | C (“C” when the rate was 0 to 30%)

— patent publication US9493448B2, “Cycloalkane derivatives” (Daiichi Sankyo Company, Limited, priority 2012, dated 2016)
